Test results taken from US20200030414A1, “THERAPEUTIC AGENT FOR SHORT STATURE” (Daiichi Sankyo Company, Limited, priority 2017, published 2020).
Where a SMILES comes first, the peptide text is derived from it. Bridges are numbered along the chain shown (N, C = ends). Where no end group is shown, it is not given here.

Assays:
[1] = Estimated concentration in plasma during repeated subcutaneous administration with two vehicles (Example 3); format: in vivo, rat
[2] = Concentration in plasma during 24-hour continuous intravenous administration (Example 4); format: in vivo, cynomolgus monkey; conditions: 0.1 mg/kg/day continuous i.v. 24 h, immediately before completion of administration
Method: (§1) The CNP derivative (A) was continuously intravenously administered at doses of 0.015 to 0.1 mg/kg/day at a constant rate to telemetry transmitter-implanted cynomolgus monkeys (two males and two females), and studied for its influence on blood pressure (systolic, diastolic, and average blood pressures), heart rate, and an electrocardiographic parameter.
[Table 3: Systolic blood pressure fluctuation range (maximum value during administration period) when CNP derivative (A) was continuously intravenously administered at constant rate for 24 hours to cynomolgus monkey, and concentration of CNP derivative (A) in plasma immediately before completion of administration

[3] = Blood pressure lowering effect, 24-hour continuous intravenous administration, telemetry (Example 4); format: in vivo, cynomolgus monkey; set-up: Systolic blood pressure fluctuation range (maximum value %): unit not given here; conditions: for Systolic blood pressure fluctuation range (maximum value %): maximum value during administration period
Method: as §1

[4] = Body length after 7-day repeated or continuous subcutaneous administration (Example 2); format: in vivo, rat; conditions: for Body length (from mouth to end of tail): male SD rat
Method: A dosing solution of the CNP derivative (A) or (B) was repeatedly subcutaneously administered at doses of 0.005, 0.015, 0.05, 0.15 and 0.5 mg/kg/day once a day for 7 days to 7-week-old male Crl:CD (SD) rats, or charged in an osmotic pump (MINI-OSMOTIC PUMP Model 2002, manufactured by DURECT Corp., flow rate: 0.5 μL/hr, for 14-day use), implanted in the backs of rats, and continuously subcutaneously administered at these doses for 7 days. Their body lengths (from the mouth to the end of the tail) were measured before the start of administration and 8 days after the start of administration.

NPR-B = conditions: Furuya et al. 1992; cited from earlier work
[5] = normal mice, continuous intravenous administration, increased bone length; cited from earlier work

Chain of NPR-B (P20594 23-1047, species assumed): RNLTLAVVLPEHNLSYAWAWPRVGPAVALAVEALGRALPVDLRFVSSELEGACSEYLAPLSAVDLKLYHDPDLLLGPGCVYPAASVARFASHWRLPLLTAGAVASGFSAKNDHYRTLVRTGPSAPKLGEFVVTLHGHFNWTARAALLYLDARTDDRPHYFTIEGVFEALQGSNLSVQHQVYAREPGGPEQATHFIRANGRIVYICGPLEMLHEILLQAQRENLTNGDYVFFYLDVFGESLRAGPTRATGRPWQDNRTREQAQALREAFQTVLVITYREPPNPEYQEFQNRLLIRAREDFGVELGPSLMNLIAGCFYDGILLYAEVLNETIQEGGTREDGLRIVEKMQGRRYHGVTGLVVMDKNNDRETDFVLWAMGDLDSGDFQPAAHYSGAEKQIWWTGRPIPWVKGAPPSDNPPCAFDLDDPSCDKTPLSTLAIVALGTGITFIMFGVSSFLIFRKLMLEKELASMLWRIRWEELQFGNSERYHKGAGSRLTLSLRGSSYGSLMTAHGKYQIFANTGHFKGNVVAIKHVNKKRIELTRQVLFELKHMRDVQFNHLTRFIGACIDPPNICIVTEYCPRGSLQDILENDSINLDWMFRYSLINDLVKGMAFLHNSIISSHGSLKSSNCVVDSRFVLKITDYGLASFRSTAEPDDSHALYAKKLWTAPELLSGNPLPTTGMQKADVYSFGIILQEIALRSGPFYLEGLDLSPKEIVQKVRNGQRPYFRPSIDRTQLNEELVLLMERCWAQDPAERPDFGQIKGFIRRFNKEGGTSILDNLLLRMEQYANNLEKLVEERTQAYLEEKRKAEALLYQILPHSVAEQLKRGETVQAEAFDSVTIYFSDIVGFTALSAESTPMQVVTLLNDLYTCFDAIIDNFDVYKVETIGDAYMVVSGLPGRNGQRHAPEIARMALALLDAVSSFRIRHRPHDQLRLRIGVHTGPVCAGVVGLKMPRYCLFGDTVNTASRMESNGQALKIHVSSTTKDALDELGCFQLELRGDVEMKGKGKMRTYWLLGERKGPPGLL

In the case of `CC[C@H](C)[C@@H]1NC(=O)[C@H](CCCNC(=N)N)NC(=O)[C@H](CC(=O)O)NC(=O)[C@H](CC(C)C)NC(=O)[C@H](CCCCN)NC(=O)[C@H](CC(C)C)NC(=O)CNC(=O)[C@H](Cc2ccccc2)NC(=O)[C@@H](NC(=O)CNC(=O)[C@H](CCCCN)NC(=O)[C@H](CO)NC(=O)[C@H](CC(C)C)NC(=O)CN)CSSC[C@@H](C(=O)N[C@H](C(=O)N[C@@H](CCC(N)=O)C(=O)N[C@@H](CCC(N)=O)C(=O)N[C@@H](CCCNC(=N)N)C(=O)N[C@@H](CCCCN)C(=O)N[C@@H](CC(=O)O)C(=O)N[C@@H](CO)C(=O)N[C@@H](CCCCN)C(=O)N[C@@H](CCCCN)C(=O)N2CCC[C@H]2C(=O)N2CCC[C@H]2C(=O)N[C@@H](C)C(=O)N[C@@H](CCCCN)C(=O)N[C@@H](CC(C)C)C(=O)N[C@@H](CCC(N)=O)C(=O)N2CCC[C@H]2C(=O)N[C@@H](CCCNC(=N)N)C(=O)O)C(C)C)NC(=O)CNC(=O)[C@H](CC(C)C)NC(=O)CNC(=O)[C@H](CO)NC(=O)[C@H](CCSC)NC(=O)[C@H](CO)NC(=O)CNC1=O` [CNP derivative (A)] (H-GLSKGCFGLKLDRIGSMSGLGCVQQRKDSKKPPAKLQPR-OH; disulfide 6-22; N-terminus and C-terminus assumed), the “estimated concentration in plasma” value ([1]; vehicle 1, 0.5 mg/kg s.c., 9 hours after administration) is reported as ≤ 0.1 ng/mL, the “estimated concentration in plasma” value ([1]; vehicle 1, 0.5 mg/kg s.c., immediately after administration) is reported as ≥ 200 ng/mL and the “peak concentration in plasma (estimated)” value ([1]; vehicle 2, 0.25 mg/kg s.c.) is reported as “about 40 ng/mL”. For the same molecule, the “estimated concentration in plasma” value ([1]; vehicle 2, 0.25 mg/kg s.c., 12 hours after administration) was ≥ 0.1 ng/mL, the Concentration in plasma [2] was 9.8 ng/mL and the “Systolic blood pressure fluctuation range (maximum value %)” value ([3]; 0.015 mg/kg/day continuous i.v. 24 h) was −6.8. For the same molecule, the “systolic blood pressure decrease” value ([3]; 0.05 mg/kg continuous i.v.) was −11.0 mmHg, the “Systolic blood pressure fluctuation range (maximum value %)” value ([3]; 0.05 mg/kg/day continuous i.v. 24 h) was −11.0 and the “systolic blood pressure decrease” value ([3]; 0.1 mg/kg continuous i.v.) was −20.5 mmHg. For the same molecule, the “Systolic blood pressure fluctuation range (maximum value %)” value ([3]; 0.1 mg/kg/day continuous i.v. 24 h) was −20.5, the reflex tachycardia ([3]; concentration in plasma up to 9.8 ng/mL at its maximum) was “no symptom indicating reflex tachycardia was observed” and the “concentration in plasma up to which reflex tachycardia is less likely to occur” value ([3]; elevated by continuous change) was “about 10 ng/mL”. The “blood pressure lowering effect (systolic and average blood pressures), average of differences from pre-administration values” ([3]; observed from 0.05 mg/kg) was “exceeding 10 mmHg” and the “concentration in plasma at which the risk of developing decreased blood pressure is drastically reduced” value ([3]; waking cynomolgus monkeys) was ≤ 4 ng/mL.
In the case of “CNP derivative (B): derivative consisting of the amino acid sequence Pro-Gly-CNP-37 (SEQ ID NO: 4), from WO2009/067639, under clinical development for achondroplasia (PGQEHPNARKYKGANKKGLSKGCFGLKLDRIGSMSGLGC; CNP derivative D, which disclosed in Am. J. Hum. Gent.(2012), 91(6), 1108-1114)”, the “bone growth effect per dose, continuous vs repeated subcutaneous administration” value ([4]; 7 days) is reported as “stronger under continuous subcutaneous administration conditions”, the “Body length (from mouth to end of tail)” value ([4]; continuous subcutaneous, 0.005 mg/kg/day, 7 days) is reported as 215.2 ± 3.5 ^NS mm and the “Body length (from mouth to end of tail)” value ([4]; continuous subcutaneous, 0.015 mg/kg/day, 7 days) is reported as 213.6 ± 4.4 ^NS mm. For the same molecule, the “Body length (from mouth to end of tail)” value ([4]; continuous subcutaneous, 0.05 mg/kg/day, 7 days) was 212.2 ± 5.2 ^NS mm, the “Body length (from mouth to end of tail)” value ([4]; continuous subcutaneous, 0.15 mg/kg/day, 7 days) was 220.2 ± 4.3 mm and the “Body length (from mouth to end of tail)” value ([4]; continuous subcutaneous, 0.5 mg/kg/day, 7 days) was 222.8 ± 3.5 mm. For the same molecule, the “increase in body length (from the mouth to the end of the tail)” value ([4]; continuous subcutaneous, 7-day, doses of 0.15 mg/kg/day or higher) was “significant increase”, the “effect on body length” value ([4]; repeated subcutaneous administration conditions, 7 days) was “no significant effect” and the “Body length (from mouth to end of tail)” value ([4]; repeated subcutaneous, 0.005 mg/kg/day, 7 days) was 211.8 ± 2.9 ^NS mm. The “Body length (from mouth to end of tail)” value ([4]; repeated subcutaneous, 0.015 mg/kg/day, 7 days) was 213.2 ± 4.4 ^NS mm, the “Body length (from mouth to end of tail)” value ([4]; repeated subcutaneous, 0.05 mg/kg/day, 7 days) was 214.4 ± 4.7 ^NS mm and the “Body length (from mouth to end of tail)” value ([4]; repeated subcutaneous, 0.15 mg/kg/day, 7 days) was 211.3 ± 4.5 ^NS mm. For the same molecule, the “Body length (from mouth to end of tail)” value ([4]; repeated subcutaneous, 0.5 mg/kg/day, 7 days) was 215.2 ± 3.3 ^NS mm.
For “CNP6-22: peptide consisting of the ring structure, amino acid positions 6 to 22 of SEQ ID NO: 1 (CFGLKLDRIGSMSGLGC; disulfide 1-17 (inferred); listed as Homo sapiens)”, the “NPR-B agonistic activity compared with hCNP-22” value (NPR-B) is listed as “almost equivalent to that of hCNP-22”.
For CNP-22, the “effective concentration in plasma” value [5] is listed as 29.3 ng/mL.
